Source: article PMC9369442, “Synthetic Peucedanocoumarin IV Prevents α-Synuclein Neurotoxicity in an Animal Model of Parkinson’s Disease” (International Journal of Molecular Sciences, 2022)

Columns and labels:
[1] = test system: SH-SY5Y cells with Tet-Off conditional expression of β23; test: Trypan blue exclusion cell viability assay, Tet-Off β23 expression; type: cell-based; conditions: 1 μM, 24 h
Procedure: Figure 1 Peucedanocoumarin IV (PCiv) inhibits β23 aggregations and cytotoxicity in SH-SY5Y cells. (A) Scheme showing the detailed experimental steps in the organic synthesis of racemic PCiv and racemic PCiii (rac-PCiii, and rac-PCiv). Both PCiii and PCiv used in this study are racemic forms. (B) Trypan blue exclusion cell viability assessment in SH-SY5Y cells with Tet-Off-induced β23 expressions. β23 was expressed for 24 h using the Tet-off system. Further expression of β23 was halted by doxycycline (Dox) treatment with simultaneous treatment of the PCiii, PCiv, or their synthetic intermediate, trans-khellatone (t-khellatone, 1 μM 24 h). Cell viability was assessed 24 h after doxycycline treatment (n = 5 per group). (C) Synthetic PCiv’s protective effect on Tet-Off-expressed β23 toxicity in SH-SY5Y cells compared with peucedanocoumarin III (PCiii) determined by trypan blue exclusion assay. (D) The degradation of β23 monitored by Western blot at 37 h after doxycycline (200 ng/mL) treatment. The representative Western blot image of HA (β23) in SH-SY5Y cells treated with synthetic PCiii, synthetic PCiv (1 μM, 37 h), or DMSO as a vehicle. (E) Quantification of HA (β23) expression in SH-SY5Y cells from the indicated experimental groups in panel D (n = 3 experiments per group). (F) Representative immunofluorescence of steady state HA (β23) expression in SH-SY5Y cells expressing Tet-Off regulatable reporter mCherry and HA-tagged β23. HA-β23 was expressed for 24 h using the Tet-off system. Further expression of β23 was halted by Dox treatment in the presence of PCiii or PCiv (1 μM, 37 h). (G) Quantification of HA (β23) immunofluorescence signal in mCherry positive SH-SY5Y cells in each experimental group (n = 32 cells from three separate experiments per group). The data are expressed as means ± SEMs. * p < 0.05, ** p < 0.01, *** p < 0.001, and **** p < 0.0001, ANOVA test followed by Tukey’s post hoc analysis. Two-way ANOVA was used in panel C.
Human neuroblastoma SH-SY5Y cells (ATCC, Manassas, VA, USA) were grown in complete media containing DMEMs, 10% fetal bovine serum (vol/vol), and antibiotics (penicillin-streptomycin 100 U/mL, Thermo Fisher Scientific, Waltham, MA, USA). The atmospheric condition used to preserve the cells consisted of 5% CO2/95% air at 37 °C and maintained a humidified environment. X-tremeGENE HP transfection reagents (Roche, Basel, Switzerland) were used for transient transfection of DNA constructs (pCMV-tTA, TetP-β23, and pTet-dual2 [5]) following the manufacturer’s instructions.
SH-SY5Y cells were plated in 12-well plates at a density of 0.2 × 10^6 cells per well. Following transient transfection with the indicated constructs and subsequent treatment protocol, the cells were harvested by trypsinization, thereby yielding single-cell suspensions. The cells were washed twice with phosphate-buffered saline (PBS) and resuspended in serum-free DMEM. The resuspended cells were mixed with an equal volume of 0.4% trypan blue (w/v) and incubated for 2 min at room temperature. Live and dead cells were counted using a Countess II Automated Cell Counter (Life Technologies, Carlsbad, CA, USA) for assessing cell viability.

[2] = target: T1, recombinant α-synuclein (Homo sapiens, UniProt P37840); test: In vitro recombinant α-synuclein aggregation, Western blot; type: biochemical; conditions: 100 μM, 37 °C, 3 or 5 days
T1 construct: made in house; host or cells: Escherichia coli BL21
Procedure: Figure 2 PCiv prevents α-synuclein aggregation in vitro and in cultured neurons with PFF treatment. (A) Representative Western blots showing the degree of recombinant α-synuclein (αSyn) aggregation in a test tube in the presence or absence of PCiv (100 μM) at the indicated incubation duration (phosphate-buffered saline [PBS], 37 °C for 3 or 5 days). Aggregation of α-synuclein was determined using α-synuclein antibody. (B) Quantification of the relative amount of α-synuclein aggregate in high molecular weight sizes in panel A (n = 3 per group). […] (D) Quantification of pS129-αSyn immunofluorescence signal intensities in MAP2-positive cortical neurons in each experimental group (n = 15 cells from three separate experiments). (E) Cell viability assessment in the indicated experimental groups was monitored by CCK-8 assay (n = 3 per group). The data are expressed as means ± SEMs. * p < 0.05, ** p < 0.01, *** p < 0.001, and **** p < 0.0001, ANOVA test followed by Tukey’s post hoc analysis. […]
(A) Representative Western blots showing the degree of recombinant α-synuclein (αSyn) aggregation in a test tube in the presence or absence of t-Khellatone, PCiii, and PCiv (100 μM) at 0 and 5 days of incubation (phosphate-buffered saline [PBS], 37 °C for 5 days). Aggregation of α-synuclein was determined using α- synuclein antibody. […]

CC1(C)Oc2ccc3ccc(=O)oc3c2C(O)C1O (stereo not drawn) [trans-khellatone, reference compound]
effect on β23-induced cytotoxicity [1]: no effect
aggregation of recombinant α-synuclein into high molecular weight species [2]: failed to prevent
